The test system of one data set is SW480. Kind of data set: Cytotoxicity against human SW480 cells assessed as decrease in cell viability after 72 hrs by MTT assay. In kind it is functional.
The subject of data set [1] is A549. As to the kind of experiment: Cytotoxicity against human A549 cells assessed as decrease in cell viability after 72 hrs by MTT assay. Type of data set: functional.
The next data set deals with NCI-H1975. As to the kind of experiment: Cytotoxicity against human NCI-H1975 cells assessed as decrease in cell viability after 72 hrs by MTT assay. Type of data set: functional. On the technique in general: Formazan colour is commonly taken as a measure of viable cells.
The subject of a further data set is A-431. Kind of data set: Cytotoxicity against human A431 cells assessed as decrease in cell viability after 72 hrs by MTT assay. Type of data set: functional.
Data set [2] has as its system A549. Kind of data set: Effect on total Erk levels in human A549 cells at 1 to 50 uM after 2 hrs by Western blot method. In kind it is ADME, cell-based. The note with it: a549, 2 h. (A western blot detects proteins with antibodies after separation by electrophoresis.)
Data set [3] addresses T1, Epidermal growth factor receptor (Homo sapiens, UniProt P00533). Kind of data set: Inhibition of wild type recombinant EGFR (unknown origin) using poly (Glu,Tyr) 4:1 as substrate after 60 mins by ELISA. In general terms: ELISA stands for enzyme-linked immunosorbent assay.
The target of data set [4] is T1, Epidermal growth factor receptor. As to the kind of experiment: Inhibition of EGFR phosphorylation at Tyr residue in human A549 cells at 1 uM preincubated for 2 hrs followed by EGF induction measured after 10 mins by Western blot method. In kind it is cell-based.
For data set [5] the target is unchanged. As to the kind of experiment: Inhibition of EGFR phosphorylation at Y1068 in human A549 cells at 1 uM preincubated for 2 hrs followed by EGF induction measured after 10 mins by Western blot method. Type of data set: cell-based.
Data set [6] shares this target. Kind of data set: Inhibition of EGFR in human A549 cells assessed as decrease in Akt phosphorylation at S473 at 1 uM preincubated for 2 hrs followed by EGF induction measured after 10 mins by Western blot method. Type of data set: cell-based.
Data set [7] shares this target. Kind of data set: Inhibition of EGFR in human A549 cells assessed as decrease in ERK1/2 phosphorylation at T202/204 at 1 uM preincubated for 2 hrs followed by EGF induction measured after 10 mins by Western blot method. In kind it is cell-based.
Data set [8] relates to A549. As to the kind of experiment: Effect on total EGFR levels in human A549 cells at 1 to 50 uM after 2 hrs by Western blot method. In kind it is ADME, cell-based. The note with it: a549, 2 h.
Data set [9] has as its system A549. Kind of data set: Effect on total Akt levels in human A549 cells at 1 to 50 uM after 2 hrs by Western blot method. In kind it is ADME, cell-based. The following applies: a549, 2 h.
Data set [10] has as its system A549. As to the kind of experiment: Effect on total GAPDH levels in human A549 cells at 1 to 50 uM after 2 hrs by Western blot method. The following applies: a549, 2 h. In kind it is ADME, cell-based.
Data set [11] addresses T1, Epidermal growth factor receptor. Kind of data set: Inhibition of EGFR phosphorylation at Tyr residue in human NCI-H1975 cells at 50 uM preincubated for 2 hrs followed by EGF induction measured after 10 mins by Western blot method. Type of data set: cell-based.
Data set [12] has the same target. Kind of data set: Inhibition of EGFR phosphorylation at Y1068 in human NCI-H1975 cells at 50 uM preincubated for 2 hrs followed by EGF induction measured after 10 mins by Western blot method. Type of data set: cell-based.
Data set [13] has the same target. As to the kind of experiment: Inhibition of EGFR in human NCI-H1975 cells assessed as decrease in Akt phosphorylation at S473 at 50 uM preincubated for 2 hrs followed by EGF induction measured after 10 mins by Western blot method. In kind it is cell-based.
For data set [14] the target is unchanged. Kind of data set: Inhibition of EGFR in human NCI-H1975 cells assessed as decrease in Erk1/2 phosphorylation at T202/204 at 50 uM preincubated for 2 hrs followed by EGF induction measured after 10 mins by Western blot method. In kind it is cell-based.

Twelve compounds from ChEMBL document CHEMBL4004868, “Synthesis and in vitro biological evaluation of novel quinazoline derivatives” (Bioorg Med Chem Lett, 2017) can be followed below.

Calls of active or inactive are those of the source. No cut-off for these calls is given here.

T1 sequence (P00533 whole entry): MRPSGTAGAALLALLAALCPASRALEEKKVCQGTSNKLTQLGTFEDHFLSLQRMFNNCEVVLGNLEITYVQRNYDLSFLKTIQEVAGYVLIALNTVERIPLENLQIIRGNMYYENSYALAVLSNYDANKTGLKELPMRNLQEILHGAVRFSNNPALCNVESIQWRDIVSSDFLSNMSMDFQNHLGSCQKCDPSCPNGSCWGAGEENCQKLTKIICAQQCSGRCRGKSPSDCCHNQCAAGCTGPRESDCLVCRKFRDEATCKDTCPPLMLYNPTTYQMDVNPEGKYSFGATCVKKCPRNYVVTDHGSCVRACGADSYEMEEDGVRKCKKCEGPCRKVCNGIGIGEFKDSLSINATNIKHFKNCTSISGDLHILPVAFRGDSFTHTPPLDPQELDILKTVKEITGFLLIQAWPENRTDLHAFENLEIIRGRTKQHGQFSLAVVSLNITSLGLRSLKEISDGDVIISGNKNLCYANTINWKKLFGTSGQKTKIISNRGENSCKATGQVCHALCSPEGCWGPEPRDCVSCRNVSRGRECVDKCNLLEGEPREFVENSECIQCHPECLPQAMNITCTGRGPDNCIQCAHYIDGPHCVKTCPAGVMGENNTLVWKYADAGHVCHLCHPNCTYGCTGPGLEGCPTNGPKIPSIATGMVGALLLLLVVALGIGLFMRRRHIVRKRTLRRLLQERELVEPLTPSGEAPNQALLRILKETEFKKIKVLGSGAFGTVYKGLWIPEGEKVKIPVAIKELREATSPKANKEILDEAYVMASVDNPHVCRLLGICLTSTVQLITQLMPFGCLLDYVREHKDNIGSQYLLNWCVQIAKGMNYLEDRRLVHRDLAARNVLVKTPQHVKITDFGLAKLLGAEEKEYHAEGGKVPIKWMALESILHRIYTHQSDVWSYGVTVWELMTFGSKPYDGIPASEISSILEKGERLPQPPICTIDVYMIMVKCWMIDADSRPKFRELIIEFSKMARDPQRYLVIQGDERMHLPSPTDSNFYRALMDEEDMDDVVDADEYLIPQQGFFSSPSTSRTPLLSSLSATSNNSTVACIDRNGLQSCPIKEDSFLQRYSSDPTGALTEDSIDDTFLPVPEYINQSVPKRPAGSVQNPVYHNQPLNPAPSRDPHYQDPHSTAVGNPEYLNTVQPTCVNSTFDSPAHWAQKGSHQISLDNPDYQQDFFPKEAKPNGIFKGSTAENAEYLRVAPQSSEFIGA

With `CS(=O)(=O)CCNCc1ccc(-c2ccc3ncnc(Nc4ccc(OCc5cccc(F)c5)c(Cl)c4)c3c2)o1` [LAPATINIB], the IG50 is 12.58 µM in the data set on SW480, 14.9 µM with A549 [1], 9.08 µM in the data set with NCI-H1975 and 4.8 µM in the data set with A-431.

For `C/C=C/c1ccc(Nc2ncnc3ccc(-c4ccc(CNCCS(C)(=O)=O)o4)cc23)cc1`, the IG50 with SW480 was 56.34 µM; in the data set on A549 [1], 84.5 µM; with NCI-H1975, over 100 µM; in the data set on A-431, 37.56 µM.

For the compound `OCc1ccc(-c2ccc3ncnc(Nc4ccc(OCc5cccc(F)c5)c(Cl)c4)c3c2)o1`, the Activity entry in the data set on A549 [2], in the data set on A549 [8], in the data set on A549 [9] and with A549 [10] was “Non-Toxic” each time. Moreover, the IG50 in the data set with SW480 turned out to be 5.58 µM; in the data set on A549 [1], 7.35 µM; with NCI-H1975 it was 3.01 µM; in the data set with A-431, 3.64 µM. The IC50 in data set [3] stood at 5.06 nM. The inhibition entry in data set [4], in data set [5], in data set [6], in data set [7], in data set [11] and in [12] was “Active” in each case. The inhibition entry in [13] and in [14] was “Active” each time.

As for `CC(=O)OCc1ccc(-c2ccc3ncnc(Nc4ccc(F)c(Cl)c4)c3c2)o1`, the IG50 was 43.18 µM with SW480, over 100 µM in the data set on A549 [1], 54.13 µM in the data set on NCI-H1975 and 10.75 µM with A-431.

As to `C#Cc1cccc(Nc2ncnc3ccc(-c4ccc(CNCCS(C)(=O)=O)o4)cc23)c1`, the IG50 in the data set on SW480 was 13.38 µM; in the data set with A549 [1] it was 11.35 µM; in the data set on NCI-H1975 it was 14.92 µM; in the data set with A-431, 5.78 µM.

As to `C#Cc1cccc(Nc2ncnc3ccc(-c4ccc(CO)o4)cc23)c1`, the IG50 in the data set on SW480 was over 100 µM; in the data set on A549 [1], over 100 µM; in the data set on NCI-H1975, over 100 µM; in the data set on A-431, 3.21 µM. Besides, in [3], the IC50 is 15.7 nM.

As for `CC(=O)OCc1ccc(-c2ccc3ncnc(Nc4ccc(OCc5cccc(F)c5)c(Cl)c4)c3c2)o1`, the IG50 in the data set with SW480 is 5.18 µM; in the data set on A549 [1] it was 5.49 µM; with NCI-H1975, 6.78 µM; with A-431, 8.33 µM.

Regarding `CS(=O)(=O)CCNCc1ccc(-c2ccc3ncnc(Nc4ccc(F)c(Cl)c4)c3c2)o1`, the IG50 is 60.59 µM with SW480, over 100 µM in the data set with A549 [1], 83.61 µM in the data set with NCI-H1975 and 39.34 µM in the data set with A-431. For the same compound, the IC50 in data set [3] was 24 nM.

With `OCc1ccc(-c2ccc3ncnc(Nc4ccc(F)c(Cl)c4)c3c2)o1`, the IG50 in the data set on SW480 was over 100 µM; in the data set on A549 [1], over 100 µM; in the data set on NCI-H1975, over 100 µM; in the data set with A-431, 3.91 µM.

In the case of `C/C=C/c1ccc(Nc2ncnc3ccc(-c4ccc(CO)o4)cc23)cc1`, the IG50 in the data set on SW480 was 51.25 µM; in the data set with A549 [1] it was 38.24 µM; in the data set with NCI-H1975, 37.93 µM; in the data set on A-431, 21.43 µM.

In the case of `C#Cc1cccc(Nc2ncnc3ccc(-c4ccc(COC(C)=O)o4)cc23)c1`, the IG50 in the data set on SW480 came to 14.97 µM; in the data set on A549 [1], 4.05 µM; in the data set with NCI-H1975, 5.4 µM; in the data set with A-431 it was 1.28 µM.

With `C/C=C/c1ccc(Nc2ncnc3ccc(-c4ccc(COC(C)=O)o4)cc23)cc1`, the IG50 came to 11.18 µM in the data set on SW480, 20.61 µM in the data set with A549 [1], 40.85 µM in the data set on NCI-H1975 and 5.53 µM with A-431.

The term IC50 denotes the concentration that gives 50% inhibition.
